Tests used:
[1] = target: mTOR (Homo sapiens, UniProt P42345); experiment: mTOR LanthaScreen (TR-FRET, phosphorylation of 4EBP1); assay type: biochemical; settings: phosphorylation of GFP-4E-BP1, 10 μM ATP, 90 minutes
Description: The mTOR LanthaScreen is a TR-FRET assay measuring the phosphorylation of mTOR's substrate 4EBP1. 384 well compound plates were prepared containing 1 μl of compound per well starting at 5 mM and diluted 1:2 across the row, resulting in a 22 well serial dilution. 24 μl of assay buffer (Invitrogen, PV4794) with 2 mM DTT was added to the compound plate in rows 1-24 using the VELOCITY 11™ VPREP™ 384 ST resulting in a DMSO concentration of 4%. The compound plate was mixed and 2.5 μl of serially diluted compound or controls was added to the assay plate (Costar, 3658).
The assay was conducted on the PerkinElmer® FlexDrop PLUS. A 5 μl mix of 800 nM GFP-4E-BP1 (Invitrogen, PV4759) and 20 μM ATP (Amgen) was added to rows 1-24. 2.5 μl of 0.6 μg/ml of mTOR Enzyme (Amgen) was added to rows 1-23. 2.5 μl of assay buffer was added to row 24 for the low control. The final concentration of the compounds was 50 μM serially diluted to 23.84 pM in 1% DMSO. […] The final concentrations in the assay reagents were 400 nM GFP-4E-BP1, 10 μM of ATP and 0.15 μg/ml of mTOR enzyme. The compound, enzyme, and substrate were incubated for 90 minutes. At this point, 10 μl of stop solution was added (20 mM Tris, pH 7.5 (Invitrogen, 15567-027), 0.02% Sodium Azide (Teknova, S0208), 0.01% NP-40 (Roche, 11754599001), 20 mM EDTA (Invitrogen, 15575-038) and 4 nM of Tb-anti-p4E-BP1 (Invitrogen, PV4758)) for a final concentration of 2 nM of Tb-anti-p4E-BP1.
Sixty minutes later the plates were read on the PerkinElmer® EnVision™ 2103 Multilable Reader using the Excitation filter 340 nm and the Emission filters 520 nm and 495 nm.

[2] = target: T1, PI3Kα (Homo sapiens, UniProt P42336); experiment: In vitro PI3K AlphaScreen assay, PI3Kα; assay type: biochemical; settings: PI(4,5)P2 substrate, 20 minutes at room temperature, read-out: P13Kalpha IC50 um
T1 construct: Full length p110 subunits of PI3K α, β and δ, N-terminally labeled with polyHis tag; polyHis (N); made in house; host or cells: Sf9 insect cells (baculovirus)
Description: The PI3K AlphaScreen® assay (PerkinElmer, Waltham, Mass.) measures the activity of a panel of four phosphoinositide 3-kinases: PI3Kα, PI3KIβ, PI3Kγ, and PI3Kδ. Each of these enzymes phosphorylates the 3′-hydroxyl group on phosphatidylinositiol (4,5)-bisphosphate (PIP2) to produce phosphatidylinositol (3,4,5)-trisphosphate (PIP3). This phosphorylation activity is measured using a GST-tagged PIP3 binding protein (Echelon Biosciences, Salt Lake City, Utah), an anti-GST-tagged Acceptor bead, and streptavidin-Donor bead. The interaction of biotinylated-PIP3 analog (IP4) and the PIP3 binding protein brings both Acceptor and Donor beads together producing, upon excitation of the Donor beads at 680 nm, a singlet oxygen species leading to the luminescent AlphaScreen® signal. When PIP3 is produced via phosphorylation of PIP2 by a PI3K, PIP3 competes with biotinylated-PIP3 analog (IP4) for binding to the PIP3 binding protein. In the absence of this interaction, proximity of the Donor and Acceptor beads is decreased, producing a loss of luminescent signal which is […] to PI3K activity. […] The enzyme reaction buffer is made using sterile water (Baxter, Deerfield, Ill.) and 50 mM Tris HCl pH 7, 14 mM MgCl2, 2 mM sodium cholate, and 100 mM NaCl. 2 mM DTT is added fresh the day of the experiment. The AlphaScreen® reaction buffer is made using sterile water and 10 mM Tris HCl pH 7.5, 150 mM NaCl, 0.10% Tween 20, and 30 mM EDTA. 1 mM DTT is added fresh the day of the experiment. The source plates for this assay are 384-well Greiner clear polypropylene plates containing test compounds at 5 mM and diluted 1:2 over 22 points. Columns 23 and 24 contain only DMSO as these are designated for positive and negative controls. Source plates are replicated into 384-well Optiplates (PerkinElmer, Waltham, Mass.), 0.5 μL/well, to make assay-ready plates. The different PI3K isoforms are each diluted in enzyme reaction buffer to 2× working solutions. PI3Kα is diluted to 1.6 nM, PI3Kβ is diluted to 0.8 nM, PI3Kγ is diluted to 15 nM, and PI3Kδ is diluted to 1.6 nM. Two different 2× substrate solutions are made in enzyme reaction buffer. In one solution, PI(4,5)P2 (Echelon Biosciences, Salt Lake City, Utah) is diluted to 10 μM and ATP is diluted to 20 μM. This solution is used in the assays testing PI3Kα and PI3Kβ. In a second solution, PI(4,5)P2 is diluted to 10 μM and ATP is diluted to 80 μM. This solution is used in the assays testing PI3Kγ and PI3Kδ. The AlphaScreen® reaction solutions are made using beads from the anti-GST AlphaScreen® kit (PerkinElmer, Waltham, Mass.). Two solutions are made in Alphascreen reaction buffer to 4× working concentrations. In one solution, biotinylated-IP4 (Echelon Biosciences, Salt Lake City, Utah) is diluted to 40 nM and streptavadin-Donor Beads are diluted to 80 μg/mL. In the second solution, PIP3-binding protein (Echelon Biosciences, Salt Lake City, Utah) is diluted to 40 nM and anti-GST-Acceptor Beads are diluted to 80 μg/mL. 10 μL/well of enzyme reaction buffer is added to Column 24 of the assay ready plates in place of enzyme. This is done for plates in the PI3Kα, β, and δ assays. Using a 384-well dispensing Multidrop (Titertek, Huntsville, Ala.), 10 μL/well of 2× enzyme (PI3Kα, β, δ) is added to Columns 1-23 of the appropriate assay ready plates (for PI3Kγ 10 μL is added to Columns 1-24). 10 μL/well of the appropriate substrate solution (the solution with 20 μM ATP for PI3Kα and β assays, and the solution with […] for PI3Kγ and δ assays) is then added to Columns 1-24 of the plates. Plates are then incubated at room temperature for 20 minutes. In the dark, 10 μL/well of the Donor Bead solution is added to Columns 1-24 of the plates to quench the enzyme reaction. The plates are incubated at room temperature for 30 minutes. Still in the dark, 10 μL/well of the Acceptor Bead solution is also added to Columns 1-24 of the plates. The plates are then incubated in the dark for 1.5 hours.

[3] = tested on: phosphorylation of Akt at Serine 473 in U87 MG cells; experiment: pAkt AlphaScreen (U87 cell); assay type: cell-based; settings: Homo sapiens, U-87 MG, 2 h; pAkt at Serine 473, U87 MG cells, two hours with compound
Description: The pAkt AlphaScreen® assay (PerkinElmer, Waltham, Mass.) determines whether there is phosphorylation of Akt at Serine 473 by recruitment of a phosphospecific antibody. This assay was performed using U87 MG cells. The U87 growth media consists of MEM (Gibco, Carlsbad, Calif.) supplemented with 10% FBS (Gibco), 1× Non-Essential Amino Acids (Gibco,) and 1× Penicillin/Streptomycin/Glutamine (Gibco). The cells were maintained weekly using 0.05% Trypsin (Gibco) and replated in 150 mm TC— Treated Culture Dishes (Corning, Corning, N.Y.).
The first day of the assay, the adherent cells were trypsinized, media was added to the loose cells and cells were mixed to a homogenous mixture. 0.5 ml of the homogenous mixture was counted on the Beckman Coulter® Vi-Cell™ XR (Fullerton, Calif.). 50 frames of cells were counted and the number of viable cells was determined. The cells were then diluted to 0.25 million cells per ml, and centrifuged at 200 rcf for 5 minutes. The media was removed and the cells were reconstituted in fresh media for plating. The cells were plated at 20 μl per well on the PerkinElmer® FlexDrop PLUS in Low Volume 384 Well White Tissue Culture Plates (Corning) with a final cell density of 5K cells per well. The plates were incubated overnight at 37° Celsius, 5% CO2.
On the second day, the compound plates were prepared, the cells were treated with compound and the pAkt reaction mix was added to the cell lysate. 384 well compound plates were prepared containing 1 μl of compound per well starting at 5 mM and diluted 1:2 across the row, resulting in a 22 well serial dilution. 39 μl of growth media was added to the compound plate in rows 1-22 using the PerkinElmer® FlexDrop PLUS resulting in a DMSO concentration of 2.5%. The cell plates and diluted compound plates were put onto the VELOCITY11™ VPREP™ 384 ST where the compound plate was mixed and 5 μl of serially diluted compound or controls was added to the cell plate. The final concentration of the compounds was 25 μM serially diluted to 11.9 pM in 0.5% DMSO.
The cell plates were then incubated with compound for two hours at 37° C., 5% CO2. After two hours, the media in the cell plates was aspirated using the BioTek® ELx405HT plate washer (Winooski, Vt.) removing the majority of media and compound without disturbing the adherent U87 cells. The following assay reagents are components of the SureFire® Akt (Ser 473) Phosphorylation 50K Point Kit (TGR BioSciences, Adelaide, Austalia) and an IgG Detection Kit (PerkinElmer, Waltham, Mass.). 5 μl of 1× Lysis Buffer was added to each well using the PerkinElmer® FlexDrop PLUS. The plates were then incubated at room temperature on a shaker for ten minutes. The AlphaScreen® reaction was prepared under low light conditions (subdued or green light) including p-Aid (Ser 473) Reaction Buffer, Dilution Buffer, Activation Buffer, Acceptor Beads and Donor Beads at a ratio of 40:20:10:1:1 respectively. The AlphaScreen® reaction was added to the cell lysate at 6 μl per well using the PerkinElmer® FlexDrop PLUS. The plates were placed in a humid environment to reduce edge effects and incubated overnight at room temperature with restricted air flow in the dark.
On the final day of the experiment, the plates were read on the PerkinElmer® EnVision™ 2103 Multilable Reader using the standard AlphaScreen® readout. The POC is calculated and the data is analyzed to report the IC50 IP for pAkt at Serine 473.
Activity data for the compounds tested in the PI3K cell based Akt assay is provided in Table 1 under the column heading U87

T1 sequence (P42336 whole entry): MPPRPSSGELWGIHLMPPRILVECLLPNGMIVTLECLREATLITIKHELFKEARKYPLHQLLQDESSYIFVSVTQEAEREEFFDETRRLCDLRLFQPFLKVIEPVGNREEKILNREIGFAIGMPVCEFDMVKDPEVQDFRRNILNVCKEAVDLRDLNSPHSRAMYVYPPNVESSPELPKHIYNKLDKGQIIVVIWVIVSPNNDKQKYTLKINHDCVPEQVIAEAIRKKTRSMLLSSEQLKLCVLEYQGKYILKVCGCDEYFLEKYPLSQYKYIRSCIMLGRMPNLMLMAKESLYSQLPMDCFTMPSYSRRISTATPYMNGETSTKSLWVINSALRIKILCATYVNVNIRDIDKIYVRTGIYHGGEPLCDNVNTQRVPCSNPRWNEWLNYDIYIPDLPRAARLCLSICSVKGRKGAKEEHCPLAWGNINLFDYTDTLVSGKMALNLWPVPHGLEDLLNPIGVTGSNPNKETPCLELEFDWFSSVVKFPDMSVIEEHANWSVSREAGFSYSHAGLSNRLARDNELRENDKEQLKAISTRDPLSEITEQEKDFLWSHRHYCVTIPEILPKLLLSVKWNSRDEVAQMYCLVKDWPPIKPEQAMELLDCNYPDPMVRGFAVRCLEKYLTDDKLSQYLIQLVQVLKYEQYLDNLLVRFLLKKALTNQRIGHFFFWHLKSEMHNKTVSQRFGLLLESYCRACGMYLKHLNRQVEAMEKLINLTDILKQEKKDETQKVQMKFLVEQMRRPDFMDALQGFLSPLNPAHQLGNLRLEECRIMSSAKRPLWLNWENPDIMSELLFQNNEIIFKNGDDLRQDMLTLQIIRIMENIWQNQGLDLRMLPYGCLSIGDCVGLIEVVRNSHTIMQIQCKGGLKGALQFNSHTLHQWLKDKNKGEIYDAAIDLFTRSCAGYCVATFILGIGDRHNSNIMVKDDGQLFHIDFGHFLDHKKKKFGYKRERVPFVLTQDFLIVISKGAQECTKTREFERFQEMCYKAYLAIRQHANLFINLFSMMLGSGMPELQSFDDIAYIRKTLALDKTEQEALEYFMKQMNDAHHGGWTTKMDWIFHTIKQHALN
T1 sequence (P27986 whole entry partner): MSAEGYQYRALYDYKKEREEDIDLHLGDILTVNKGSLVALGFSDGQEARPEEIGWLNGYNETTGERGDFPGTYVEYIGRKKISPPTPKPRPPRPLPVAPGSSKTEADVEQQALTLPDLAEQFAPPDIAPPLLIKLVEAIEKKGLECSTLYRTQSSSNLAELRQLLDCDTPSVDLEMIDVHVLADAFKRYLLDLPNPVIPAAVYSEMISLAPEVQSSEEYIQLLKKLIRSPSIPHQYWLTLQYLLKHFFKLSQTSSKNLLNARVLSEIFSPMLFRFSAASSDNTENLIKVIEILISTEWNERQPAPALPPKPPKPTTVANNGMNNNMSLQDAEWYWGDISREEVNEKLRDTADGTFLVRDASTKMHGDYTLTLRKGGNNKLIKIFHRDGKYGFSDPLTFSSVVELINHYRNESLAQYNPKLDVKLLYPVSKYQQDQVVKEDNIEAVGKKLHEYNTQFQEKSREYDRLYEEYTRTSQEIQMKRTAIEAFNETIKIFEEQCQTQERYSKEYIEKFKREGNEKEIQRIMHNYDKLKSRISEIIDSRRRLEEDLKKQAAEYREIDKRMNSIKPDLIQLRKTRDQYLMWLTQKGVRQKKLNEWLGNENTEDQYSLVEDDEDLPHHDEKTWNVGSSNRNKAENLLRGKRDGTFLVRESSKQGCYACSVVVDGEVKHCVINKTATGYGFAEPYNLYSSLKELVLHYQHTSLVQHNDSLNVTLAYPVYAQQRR

## Cc1nc(N)nc(-c2c(Nc3ccn(C(=O)NCCO)n3)nc3ccccn23)n1 [Cpd 198, 3-((3-(4-amino-6-methyl-1,3,5-triazin-2-yl)imidazo[1,2-a]pyridin-2-yl)amino)-N-(2-hydroxyethyl)-1H-pyrazole-1-carboxamide]
[1]
  IC50: 110 nM
[2]
  IC50: 2210 nM

## Cc1nc(N)nc(-c2c(Nc3ccnn3C(=O)N3CCOCC3)nc3ccccn23)n1 [Cpd 201]
[1]
  IC50: 250 nM
[2]
  IC50: 1390 nM

## Cc1nc(N)cc(-c2c(Nc3ccn(S(C)(=O)=O)n3)nc3ccccn23)n1 [Cpd 217, 3-(6-amino-2-methyl-4-pyrimidinyl)-N-(1-(methylsulfonyl)-1H-pyrazol-3-yl)imidazo[1,2-a]pyridin-2-amine]
[1]
  IC50: 1740 nM
[3]
  IC50: 1180 nM

## CNCCNC(=O)n1ccc(Nc2nc3cccnn3c2-c2cc(N)nc(C)n2)n1 [Cpd 258]
[1]
  IC50: 500 nM
[2]
  IC50: 30 nM

Source: US20120190666A1, “Heteroaryl Compounds as PIKK Inhibitors” (Amgen Inc., priority 2009, published 2012)
